Experimental data reported in ChEMBL document CHEMBL1201862, “PubChem BioAssay data set” (2004).
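Tested at 5 concentrations; 48 h exposure; 96-well plates; endpoints linearly interpolated, else capped at highest concentration. GI50 = concentration required for 50% inhibition of growth.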 Calls of active or inactive are those of the source. Cut-off read from the data, not from the text of the source: active = GI50 up to about 1.1 µM and inactive = higher.

Assays:
Assay in all cases: growth of human tumour cells (NCI), 48 h
[1] = system: BT-549
[2] = system: DLD-1
[3] = system: DMS-114
[4] = system: DMS-273
[5] = system: RXF 631
[6] = system: SNB-78
[7] = system: XF498
[8] = system: HOP-18
[9] = system: KM-20L2

SMILES	GI50 [1]	GI50 [3]	GI50 [4]	GI50 [6]	other results
c1csc(-c2cc(-c3cccs3)c(-c3cccs3)s2)c1	> 100 µM (inactive)	–	–	–	–
COc1ccc(CCN2C(=O)C(=O)C(C(=O)c3ccccc3)C2c2ccccc2)cc1OC (stereo not given)	51.6 µM (inactive)	–	–	–	–
Cn1nc(-c2ccccc2)nc1[N+](=O)[O-]	> 10 µM (inactive)	–	–	–	–
Cn1cncc1CC1COC(=O)C1C(O)c1ccccc1 (stereo not given)	> 100 µM (inactive)	–	–	–	–
CC(=O)C1C(=O)N(C(C)C)C[C@@H]2CCC(=O)C[C@H]12 (stereo not given in full)	–	> 100 µM (inactive)	> 100 µM (inactive)	> 100 µM (inactive)	GI50 [2]: > 100 µM (inactive); GI50 [5]: > 100 µM (inactive); GI50 [7]: > 100 µM (inactive)
Cc1ccc2c(C)c3ccc4ccccc4c3c[n+]2c1.[O-][Cl+3]([O-])([O-])[O-]	–	10.6 µM (inactive)	11.5 µM (inactive)	41.4 µM (inactive)	GI50 [2]: 37.8 µM (inactive); GI50 [8]: 12.4 µM (inactive); GI50 [9]: 33.3 µM (inactive)
O=c1[nH]nc2ccccc2c1Cc1ccccc1	–	> 100 µM (inactive)	> 100 µM (inactive)	> 100 µM (inactive)	GI50 [2]: > 100 µM (inactive); GI50 [8]: > 100 µM (inactive); GI50 [9]: > 100 µM (inactive); GI50 [7]: > 100 µM (inactive)
CC(=O)N1C2=CCCC2(C)c2ccccc21 (stereo not given)	> 100 µM (inactive)	–	–	–	–
CCOc1ccc2c(c1)[n+]([O-])c(-c1nc3ccccc3s1)c(N)[n+]2[O-]	–	44.1 µM (inactive)	52.6 µM (inactive)	> 100 µM (inactive)	GI50 [2]: 76.4 µM (inactive); GI50 [8]: 15.4 µM (inactive); GI50 [9]: > 100 µM (inactive); GI50 [7]: 25.8 µM (inactive)
COC1(OC)C(N(C)C)=C(Cl)C(=O)/C1=C/C=O	–	> 100 µM (inactive)	> 100 µM (inactive)	–	GI50 [2]: > 100 µM (inactive); GI50 [8]: > 100 µM (inactive); GI50 [9]: > 100 µM (inactive)
COc1ccc2c(=O)cc(-c3ccncc3)oc2c1OC	26 µM (inactive)	–	–	–	–
COc1cc(O)c2c(c1)C(=O)C1=C(C2=O)C(O)C[C@@](C)(O)C1 (stereo not given in full)	–	1.5 µM (inactive)	1.57 µM (inactive)	1.9 µM (inactive)	GI50 [2]: 0.229 µM (active); GI50 [9]: 3.36 µM (inactive); GI50 [7]: 1.9 µM (inactive)
CCCN(CCC)C(=S)N/N=C(/C)c1ccccc1O	5.25 µM (inactive)	–	–	–	–
CCOC(=O)CCc1c(C(=O)OCC)[nH]c(/C=C2/NC(=O)C(C)=C2CC)c1C	1.61 µM (inactive)	–	–	–	–
N#Cc1ccc(/C=N/C23CC4CC(CC(C4)C2)C3)cc1	–	56 µM (inactive)	98.2 µM (inactive)	> 100 µM (inactive)	GI50 [9]: > 100 µM (inactive); GI50 [5]: 32.5 µM (inactive)
Cc1cccc(C(=O)O)c1CC1NCCC2c3ccccc3NC12 (stereo not given)	> 100 µM (inactive)	–	–	–	–
CCOc1cc(NC(C)=O)ccc1C(=O)NN1C(=O)C(Cl)C1c1ccc(O)c(OC)c1 (stereo not given)	8.83 µM (inactive)	–	–	–	–

SMILES	GI50 [1]	GI50 [3]	GI50 [4]	GI50 [6]	other results
COc1cc(C[C@H]2C(=O)OC[C@@H]2Cc2ccc(OC)c(OC)c2)cc(OC)c1	16.8 µM (inactive)	–	–	–	–
COC(=O)C(/C(=N/N)C(=O)Nc1cc(Cl)ccc1Cl)c1nc2ccc([N+](=O)[O-])cc2nc1O (stereo not given)	–	50.2 µM (inactive)	57.3 µM (inactive)	> 100 µM (inactive)	GI50 [9]: 49.9 µM (inactive); GI50 [7]: > 100 µM (inactive)
Cc1cc2[n-][n+]3ncc(-c4ccccc4)n3c2cc1[N+](=O)[O-]	> 100 µM (inactive)	–	–	–	–
C=CCOn1c(C=C)nc2ccc(C)cc21	19.7 µM (inactive)	–	–	–	–
O=C(CN1CCN(c2ccccc2)CC1)c1ccc2[nH]c(=O)oc2c1	> 100 µM (inactive)	–	–	–	–
COc1cccc(C2c3cc4c(cc3OC(NNS(=O)(=O)c3ccc(C)cc3)C2C)OCO4)c1OC (stereo not given)	2.2 µM (inactive)	–	–	–	–
CN=C(n1ccnc1)n1ccnc1	> 100 µM (inactive)	–	–	–	–
C=CNC(=O)NC(=O)CSc1nc(=O)c(-c2ccccc2NC(=O)C(F)(F)F)n[nH]1	–	21.1 µM (inactive)	43.9 µM (inactive)	25.2 µM (inactive)	GI50 [2]: 2.81 µM (inactive); GI50 [7]: 33.9 µM (inactive)
CCCn1cnc2c(SCC(=O)O)nc(N)nc21	> 100 µM (inactive)	–	–	–	–
Cc1n[nH]c(=O)n1/N=C\CC/C=N\n1c(C)n[nH]c1=O	> 100 µM (inactive)	–	–	–	–
O=c1cc(NCc2ccncc2)[nH]c(=O)[nH]1	> 100 µM (inactive)	–	–	–	–
C[C@]1(CO)[C@H]2CC[C@@]34C=C[C@@](CO)(CC[C@H]3[C@]2(C)CC[C@H]1O)C4	56.2 µM (inactive)	–	–	–	–
Cc1c(C(=O)/C=C/c2c(Cl)cccc2Cl)c(=O)n(-c2ccccc2)n1C	–	22.7 µM (inactive)	4.82 µM (inactive)	6.24 µM (inactive)	GI50 [9]: 19.6 µM (inactive); GI50 [7]: 19.6 µM (inactive)
CC(=O)OCC1OC(Nc2ccc3nc(C)n(-c4ccccc4)c(=O)c3c2)C(OC(C)=O)C(OC(C)=O)C1OC(C)=O (stereo not given)	> 50 µM (inactive)	–	–	–	–
CC(C)(C)c1cc(C(P(=O)(O)O)P(=O)(O)O)cc(C(C)(C)C)c1O	–	> 100 µM (inactive)	> 100 µM (inactive)	> 100 µM (inactive)	GI50 [2]: > 100 µM (inactive); GI50 [8]: > 100 µM (inactive); GI50 [9]: > 100 µM (inactive)
COc1ccc2c(c1)N=C(N)n1c(nc3ccccc31)S2	27.1 µM (inactive)	–	–	–	–
